Here are results for one compound from patent publication US10000469B2, “Heat shock protein 70 (hsp-70) receptor ligands” (Duke University, priority 2014, dated 2018).

Data set [1] is described as follows: HS-72 PK in plasma, kidney and liver. It is filed as in vivo, mice. How it is done: HS-72 PK: Wild-type mice were injected IP with HS-72 and sacrificed 5 minutes, 1 hour, 4 hours, 8 hours, and 24 hours post injection. Untreated animals were included as control and called 0 minutes. Each time point consisted of 3 animals. At the indicated time points liver, kidney, and blood was harvested from each animal. Whole blood was centrifuged and only the plasma was retained. Whole liver and kidneys were frozen and stored at −80° C. until processing. Before quantifying HS-72 in the plasma and tissue a standard curve was made using HS-72 and N-(1-methyl-1H-benzo[d]imidazol-2-yl)-1-(pyrazin-2-yl)piperidine-3-carboxamide (“HS-156”), as the internal standard. HS-72 and HS-156 were diluted in water and were further diluted 1:4 in acetonitrile. The resulting solution was then filtered through a 0.2 μm PTFE membrane (VWR, Radnor, Pa.). 15 uL of the solution was run through an Eclipse Plus C18 column (Agilent, Santa Clara, Calif.) and analyzed by an Agilent Ion Trap 6130 LC-MS (Agilent, Santa Clara, Calif.). The total ion chromatogram (TIC), extracted ion chromatogram (EIC), UV chromatogram, and mass spectra (MS) were obtained for each run. The area under the curve from the EIC for HS-72 at 364-366 and for HS-156 at 337 was determined. The EIC area ratio for HS-72 compared to HS-156 was calculated and this ratio was used to plot a standard curve based on the known concentrations of HS-72. The plasma samples were processed in the same manner as in the standard curve and analyzed by LC-MS. The resulting EIC ratios from HS-72 compared to HS-156 were then determined, which was used to calculate the concentration of HS-72 in the diluted sample. The concentration in solution of HS-72 was adjusted for the 1:4 dilution that occurs during sample preparation. The final concentration of HS-72 in plasma was calculated per mL of plasma. The liver and kidney samples were weighed and homogenized in tissue lysis buffer. The resulting homogenate was then processed in the same manner as the plasma samples. The resulting EIC ratios from HS-72 compared to HS-156 were then determined, which was used to calculate the concentration of HS-72 in the diluted sample. The concentration in solution of HS-72 was adjusted for the 1:4 dilution that occurs during sample preparation. Final concentration of HS-72 in the kidney and liver was calculated per gram of tissue using the weight of each tissue measured before sample processing.

Another data set has as its system NF639. The data set is described as follows: Cell proliferation, NF639. The data set is classed as cell-based, mouse. How it is done:
Cell Proliferation: Cell proliferation was determined using a Hoechst stain (Sigma, St. Louis, Mo.) to quantify DNA. 5,000 cells of the designated cell line were plated in 96 well plates and treated the next day, designated as time point 0, with the indicated concentration of the specified compound maintained for the duration of the assay. At the indicated time points the media was removed and plated frozen at −80° C. Double distilled H2O was then added and the plates were incubated at 37° C. for 1 hour. After 1 hour the plates were frozen at −80° C. After freezing the plates were thawed and Hoechst stain was diluted 1:1000 in THE buffer (10 mM Tris, 2M NaCl, 1 mM Na2EDTA). The final fluorescence was measured on the Victor X2 plate reader at 355/460 nm, and cell proliferation was determined with the formula: % Cell Proliferation=100×(Sample fluorescence−background fluorescence)/(Control fluorescence−background fluorescence).

The target in a further data set is Hsp70 (Homo sapiens, UniProt P0DMV8). The experiment in a line: Single turnover ATPase assay. It is filed as biochemical. The note with it: presence or absence of co-chaperone Hlj1. How it is done:
ATPase Assay: Single turnover assays were performed as previously described [Fewell et al. (2004). Small molecule modulators of endogenous and co-chaperone-stimulated Hsp70 ATPase activity. The Journal of biological chemistry 279, 51131-51140]. Briefly, Hsp70 was incubated with ^32P-ATP and cold ATP in single turnover buffer (1M KCl, 250 mM HEPES, 110 mM MgOAc) for 30 minutes on ice. ^32P-ATP-Hsp70 complex was purified from a Nick Column-Sephadex G-50 (Amersham, Piscataway, N.J.). Glycerol was added and the complexes were stored at −80° C. To determine ATP hydrolysis, a sample was thawed and added to single turnover buffer containing Hlj1 and compound added after 60 seconds. At the specified time points an aliquot of the reaction is removed, added to stop solution (2M LiCl, 4M formic acid, 36 mM ATP) and spotted on a TLC plate. The percentage of ATP hydrolyzed to ADP and P, was then calculated.

The mark [2] stands for this setting: 24 hours, IP 20 mg/Kg, n=3, SEM.

Chain of Hsp70 (P0DMV8 whole entry): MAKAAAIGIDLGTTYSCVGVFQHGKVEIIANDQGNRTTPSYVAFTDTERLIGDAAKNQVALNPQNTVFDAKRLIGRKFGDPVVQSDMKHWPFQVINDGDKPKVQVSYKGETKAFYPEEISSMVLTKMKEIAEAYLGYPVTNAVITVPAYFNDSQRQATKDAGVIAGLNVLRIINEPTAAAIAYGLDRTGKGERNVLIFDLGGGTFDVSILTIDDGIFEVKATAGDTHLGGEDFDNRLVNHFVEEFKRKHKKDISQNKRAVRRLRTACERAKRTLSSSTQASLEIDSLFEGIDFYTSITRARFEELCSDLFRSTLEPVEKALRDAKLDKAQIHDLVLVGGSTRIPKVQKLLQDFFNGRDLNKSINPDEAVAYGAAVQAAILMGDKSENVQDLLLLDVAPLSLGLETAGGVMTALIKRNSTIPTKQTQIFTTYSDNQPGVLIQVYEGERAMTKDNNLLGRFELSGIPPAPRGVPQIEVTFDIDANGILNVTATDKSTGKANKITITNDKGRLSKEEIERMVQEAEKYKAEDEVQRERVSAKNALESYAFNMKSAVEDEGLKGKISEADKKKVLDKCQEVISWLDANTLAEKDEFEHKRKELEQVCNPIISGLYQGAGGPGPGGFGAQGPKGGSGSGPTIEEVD

In the case of `CCCn1c(NC(=O)[C@H]2CCCN(c3cnccn3)C2)nc2ccccc21` [HS-72, (S)—N-(1-propyl-1H-benzo[d]imidazol-2-yl)-1-(pyrazin-2-yl)piperidine-3-carboxamide], the plasma concentration in data set [1] (5 minutes post IP injection, 20 mg/Kg, n=3, SEM) came out at 70 ± 30 µM; in data set [1] (8 hours post IP injection, 20 mg/Kg, n=3, SEM), 2 ± 0.2 µM. Besides, the kidney concentration came out at 0.43 ± 0.08 µmol/g in data set [1] (5 minutes, IP 20 mg/Kg, n=3, SEM) and 0.02 ± 0.004 µmol/g in data set [1] (setting [2]). Further, the liver concentration (peak) in data set [1] (8 hours, IP 20 mg/Kg, n=3, SEM) stood at 2.26 ± 0.5 µmol/g. The compound further returned a liver concentration in data set [1] (setting [2]) of 0.51 ± 0.11 µmol/g. Further, the “plasma [HS-72] maintained” value in data set [1] (for at least 8 hours) is greater than 20 µM. Moreover, in data set [1] (mouse, plasma, 24 hours post IP injection, 20 mg/Kg, read-out: plasma concentration, trace amounts), the concentration at 24 hours is less than 10 µM. The half-life in data set [1] (mouse, plasma, IP 20 mg/Kg, n=3, SEM, read-out: T1/2 elimination from plasma (converted)) is 24 ± 6 min. The “metabolism in plasma, kidney and liver” value in data set [1] (parent MS ion of 365.2 Da detected intact) is on record as “no evidence of rapid metabolism”. The “cell proliferation, combination with HS-10” value with NF639 is “synergistic inhibition”. Moreover, in the data set on NF639 (25 uM and 50 uM at 24, 48, and 72 hours), the cell proliferation entry was “inhibits proliferation”. In addition, at Hsp70, the “effect on Hsp70 ATPase activity” value is given as “does not reduce”.
